Test results as given in patent US4866069A, “Substance 4181-2 and its derivatives having anti-leukemia activity” (Taiho Pharmaceutical Company, Limited, priority 1986, dated 1989).
Converted amounts (≈) assume the structure as drawn.

What was measured:
[1] = system: Aspergillus niger IFO 6341; assay: Antimicrobial spectrum (MIC), two-fold serial dilution; type: cell-based; details: IFO6341, Sabouraud's agar medium
Protocol: (§1) The antibacterial and antifungal spectra of Substance 4181-2 were investigated. Using nutrient agar medium for gram-positive and gram-negative bacteria and Sabouraud's agar medium for fungi, the minimal inhibitory concentration (MIC) was determined by a two-fold serial dilution method.

[2] = system: Bacillus subtilis ATCC 6633; assay: as above; type: cell-based; details: ATCC6633, nutrient agar medium
Protocol: as §1

[3] = system: Candida albicans IFO 1061; assay: as above; type: cell-based; details: IFO1061, Sabouraud's agar medium
Protocol: as §1

[4] = system: Escherichia coli B IFO 13168; assay: as above; type: cell-based; details: IFO13168, nutrient agar medium
Protocol: as §1

[5] = system: Klebsiella pneumoniae ATCC 10031; assay: as above; type: cell-based; details: ATCC10031, nutrient agar medium
Protocol: as §1

[6] = system: Micrococcus flavus ATCC 10240; assay: as above; type: cell-based; details: ATCC10240, nutrient agar medium
Protocol: as §1

[7] = system: Penicillium notatum IFO 4640; assay: as above; type: cell-based; details: Penicillium chrysogenum, IFO4640, Sabouraud's agar medium
Protocol: as §1

[8] = system: Proteus vulgalis IFO 3045; assay: as above; type: cell-based; details: nutrient agar medium
Protocol: as §1

[9] = system: Pseudomonus fluorescens IFO 12180; assay: as above; type: cell-based; details: nutrient agar medium
Protocol: as §1

[10] = system: Saccharomyces delbrueckii IAM 12236; assay: as above; type: cell-based; details: Torulaspora delbrueckii, IAM12236, Sabouraud's agar medium
Protocol: as §1

[11] = system: Staphylococcus aureus 209P; assay: as above; type: cell-based; details: nutrient agar medium
Protocol: as §1

[12] = system: Trichophyton mentagrophytes IFO 5466; assay: as above; type: cell-based; details: IFO5466, Sabouraud's agar medium
Protocol: as §1

[13] = system: leukemia P388 cells; assay: Antitumor activity: life span-prolonging effect in mouse leukemia; type: in vivo, BDF1 mice; details: for % Increase in survival time / Mean survival time: 3 mg/kg intraperitoneally, day after i.p. injection of 1×10^6 P388 cells, BDF1 mice; for % Increase in survival time: ((D/D0)-1)×100 vs untreated; for Mean survival time: untreated control 9.3 ± 0.8 days
Protocol: The antitumor activity of Substance 4181-2 and its derivatives was evaluated in terms of the increase in life span. One ×10^6 of leukemia P388 cells were intraperitoneally injected to BDF1 mice. Each group consisted of 6 mice. On the following day, each of Compounds 1-4, suspended in 0.2% solution of Tween 80 in physiological saline, was administered intraperitoneally and the survival time in days was determined. The percent increase in survival time was calculated by means of the following formula.
Percent increase in survival time=((D/D0)-1)×100 wherein D0 stands for the mean survival time (days) in the untreated group and D stands for the mean survival time (days) in the treated group.

[14] = Acute toxicity study (up-and-down method); set-up: species or system mice of ddY strain; details: mouse, in vivo, ip, intraperitoneal, male ddY mice, 25 g
Protocol: Male mice of ddY strain (body weight 25 g) were used. Each of Compounds 1-4 was suspended in 0.2% solution of Tween 80 in physiological saline and administered intraperitoneally to the animals. The LD50 values (mg/kg) were determined by the up-and-down method.

[15] = system: microorganisms including gram-positive bacteria, gram-negative bacteria and fungi; assay: Antimicrobial activity (summary statement); type: cell-based
Protocol: as §1

[16] = literature statement; cited from earlier work

Row | Compound | % Increase in survival time [13] [%] | Mean survival time [13] [days] | LD50 [14] [mg/kg] | antimicrobial activity (in words) [16] | other results
1 | COc1cc2oc3c(c(=O)c2cc1O)C(=O)c1c(ccc2cc4c(c(O)c12)C(=O)N1CCOC1(C)C4)C3=O (stereo not shown) [Compound 1, Substance 4181-2] | 94 | 18.0 ± 1.4 | ≥ 40 |  | MIC [1]: 3.13 µg/mL (≈ 6.1 µM); MIC [2]: 0.2 µg/mL (≈ 0.39 µM); MIC [3]: 0.39 µg/mL (≈ 0.76 µM); MIC [4]: 1.56 µg/mL (≈ 3.04 µM); MIC [5]: 3.13 µg/mL (≈ 6.1 µM); MIC [6]: 0.2 µg/mL (≈ 0.39 µM); MIC [7]: 1.56 µg/mL (≈ 3.04 µM); MIC [8]: 0.39 µg/mL (≈ 0.76 µM); MIC [9]: 0.2 µg/mL (≈ 0.39 µM); MIC [10]: 1.56 µg/mL (≈ 3.04 µM); MIC [11]: 0.2 µg/mL (≈ 0.39 µM); MIC [12]: 0.78 µg/mL (≈ 1.52 µM); antitumor activity (in words) ([13]; summary statement): excellent antitumor activity; antimicrobial spectrum (in words) [15]: broad antimicrobial spectrum
2 | COc1cc2oc3c(c(=O)c2cc1OC(C)=O)C(=O)c1c(ccc2cc4c(c(OC(C)=O)c12)C(=O)N1CCOC1(C)C4)C3=O (stereo not shown) [Compound 2, diacetyl derivative of Substance 4181-2] | 59 | 14.8 ± 0.8 | ≥ 40 |  | 
3 | COc1cc2oc3c(c(=O)c2cc1OC)C(=O)c1c(ccc2cc4c(c(O)c12)C(=O)N1CCOC1(C)C4)C3=O (stereo not shown) [Compound 3, monomethyl derivative of Substance 4181-2] | 63 | 15.2 ± 1.7 | ≥ 40 |  | 
4 | COc1cc2oc3c(c(=O)c2cc1OC)C(=O)c1c(ccc2cc4c(c(OC(C)=O)c12)C(=O)N1CCOC1(C)C4)C3=O (stereo not shown) [Compound 4, monomethyl monoacetyl derivative of Substance 4181-2] | 53 | 14.2 ± 0.8 | ≥ 40 |  | 
5 | COc1cc2oc3c(O)c4ccc5cc6c(c(O)c5c4c(O)c3c(=O)c2cc1OC)C(=O)N1CCOC1(C)C6 (stereo not shown) [cervinomycin A1] |  |  |  | have antimicrobial activity | 
6 | COc1cc2oc3c(c(=O)c2cc1OC)C(=O)c1c(ccc2cc4c(c(O)c12)C(=O)N1CCOC1(C)C4)C3=O (stereo not shown) [cervinomycin A2] |  |  |  | have antimicrobial activity | 
